Experimental findings from ChEMBL document CHEMBL1151152, “7-deoxy-6-epi-castanospermine, a trihydroxyindolizidine alkaloid glycosidase inhibitor from Castanospermum australe” (J Nat Prod, 1990) are described below.

Test [1] has as its system Aspergillus niger. Description: Inhibition of Aspergillus niger amyloglucosidase by competitive inhibition-based kinetic assay.
Test [2] deals with Aspergillus niger. Description: Inhibition of Aspergillus niger amyloglucosidase at 20 uM by competitive inhibition-based kinetic assay.
For test [3], the species on record is Bos taurus. Description: Inhibition of bovine epididymis beta-N-acetylglucosaminidase B up to 1 mM.
Another test concerns Prunus dulcis. Description: Inhibition of almond beta-glucosidase up to 1 mM.
Test [4] relates to Aspergillus niger. Description: Inhibition of Aspergillus niger alpha-galactosidase up to 1 mM.
For test [5], the species on record is Bos taurus. Description: Inhibition of bovine kidney alpha-L-fucosidase up to 1 mM.
Test [6] concerns Vigna radiata var. radiata. Description: Inhibition of mung bean seedlings glucosidase 2 up to 1 mM.
Test [7] concerns Saccharomyces cerevisiae. Description: Inhibition of yeast alpha-glucosidase at 1 mM.
Test [8] deals with Aspergillus niger. Description: Inhibition of Aspergillus niger beta-xylosidase up to 1 mM.
Test [9] concerns Aspergillus niger. Description: Inhibition of Aspergillus niger alpha-mannosidase up to 1 mM.
The test system of test [10] is Vigna radiata var. radiata. Description: Inhibition of mung bean seedlings glucosidase 1.
The species entered for test [11] is Bos taurus. Description: Inhibition of bovine liver beta-galactosidase.
The target of test [12] is T1, Beta-glucuronidase (Bos taurus) (UniProt A3KMY8).
T1 sequence (whole entry): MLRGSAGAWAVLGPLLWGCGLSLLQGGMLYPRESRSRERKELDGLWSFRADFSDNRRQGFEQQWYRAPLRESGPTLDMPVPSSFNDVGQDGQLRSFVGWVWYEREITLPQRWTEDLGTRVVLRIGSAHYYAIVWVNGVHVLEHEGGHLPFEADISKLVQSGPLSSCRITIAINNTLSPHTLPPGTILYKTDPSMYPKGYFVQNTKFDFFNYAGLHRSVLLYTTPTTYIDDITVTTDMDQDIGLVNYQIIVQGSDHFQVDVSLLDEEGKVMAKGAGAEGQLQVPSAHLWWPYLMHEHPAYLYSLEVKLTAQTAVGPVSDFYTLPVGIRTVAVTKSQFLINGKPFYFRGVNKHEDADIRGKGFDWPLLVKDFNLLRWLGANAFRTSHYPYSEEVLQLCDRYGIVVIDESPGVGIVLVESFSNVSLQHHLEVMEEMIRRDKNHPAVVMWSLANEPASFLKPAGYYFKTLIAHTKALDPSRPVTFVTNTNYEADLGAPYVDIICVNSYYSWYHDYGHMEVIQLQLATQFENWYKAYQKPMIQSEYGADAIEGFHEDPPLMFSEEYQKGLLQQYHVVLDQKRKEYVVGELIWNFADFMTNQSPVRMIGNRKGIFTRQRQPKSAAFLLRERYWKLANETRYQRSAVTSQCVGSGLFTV
Description: Inhibition of bovine liver beta-glucuronidase up to 1 mM.

The target of test [13] is Sucrase-isomaltase, intestinal (Rattus norvegicus) (UniProt P23739). Description: Inhibition of Sprague-Dawley rat small intestine sucrase.
Sequence of Sucrase-isomaltase, intestinal (Rattus norvegicus) (P23739 1-1013 limits assumed): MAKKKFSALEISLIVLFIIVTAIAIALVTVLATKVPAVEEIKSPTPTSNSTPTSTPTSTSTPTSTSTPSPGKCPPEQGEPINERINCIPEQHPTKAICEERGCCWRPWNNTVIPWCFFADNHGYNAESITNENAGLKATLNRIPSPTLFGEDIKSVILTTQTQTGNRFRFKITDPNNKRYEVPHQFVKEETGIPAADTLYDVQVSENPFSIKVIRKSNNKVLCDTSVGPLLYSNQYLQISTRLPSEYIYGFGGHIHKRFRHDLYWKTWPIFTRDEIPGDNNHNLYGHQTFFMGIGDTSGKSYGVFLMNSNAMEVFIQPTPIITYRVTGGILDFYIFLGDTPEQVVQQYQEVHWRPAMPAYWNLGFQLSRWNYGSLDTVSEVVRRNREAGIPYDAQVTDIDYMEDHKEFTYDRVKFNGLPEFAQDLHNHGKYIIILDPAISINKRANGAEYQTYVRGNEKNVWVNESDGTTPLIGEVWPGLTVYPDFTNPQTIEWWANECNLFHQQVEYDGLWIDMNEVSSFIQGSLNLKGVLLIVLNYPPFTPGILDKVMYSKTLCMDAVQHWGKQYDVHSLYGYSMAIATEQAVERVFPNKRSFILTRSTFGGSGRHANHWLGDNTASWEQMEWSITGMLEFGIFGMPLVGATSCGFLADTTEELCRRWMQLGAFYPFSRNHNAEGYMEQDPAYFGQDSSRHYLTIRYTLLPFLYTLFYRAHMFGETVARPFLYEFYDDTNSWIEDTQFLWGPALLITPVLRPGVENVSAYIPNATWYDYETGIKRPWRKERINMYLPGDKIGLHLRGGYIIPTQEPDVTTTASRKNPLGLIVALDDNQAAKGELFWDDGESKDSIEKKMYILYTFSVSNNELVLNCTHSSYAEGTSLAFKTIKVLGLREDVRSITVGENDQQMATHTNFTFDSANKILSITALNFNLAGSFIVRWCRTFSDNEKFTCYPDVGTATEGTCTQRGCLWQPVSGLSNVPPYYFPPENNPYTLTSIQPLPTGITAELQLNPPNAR
Sequence of Sucrase-isomaltase, intestinal (Rattus norvegicus) (P23739 1014-1841 limits assumed): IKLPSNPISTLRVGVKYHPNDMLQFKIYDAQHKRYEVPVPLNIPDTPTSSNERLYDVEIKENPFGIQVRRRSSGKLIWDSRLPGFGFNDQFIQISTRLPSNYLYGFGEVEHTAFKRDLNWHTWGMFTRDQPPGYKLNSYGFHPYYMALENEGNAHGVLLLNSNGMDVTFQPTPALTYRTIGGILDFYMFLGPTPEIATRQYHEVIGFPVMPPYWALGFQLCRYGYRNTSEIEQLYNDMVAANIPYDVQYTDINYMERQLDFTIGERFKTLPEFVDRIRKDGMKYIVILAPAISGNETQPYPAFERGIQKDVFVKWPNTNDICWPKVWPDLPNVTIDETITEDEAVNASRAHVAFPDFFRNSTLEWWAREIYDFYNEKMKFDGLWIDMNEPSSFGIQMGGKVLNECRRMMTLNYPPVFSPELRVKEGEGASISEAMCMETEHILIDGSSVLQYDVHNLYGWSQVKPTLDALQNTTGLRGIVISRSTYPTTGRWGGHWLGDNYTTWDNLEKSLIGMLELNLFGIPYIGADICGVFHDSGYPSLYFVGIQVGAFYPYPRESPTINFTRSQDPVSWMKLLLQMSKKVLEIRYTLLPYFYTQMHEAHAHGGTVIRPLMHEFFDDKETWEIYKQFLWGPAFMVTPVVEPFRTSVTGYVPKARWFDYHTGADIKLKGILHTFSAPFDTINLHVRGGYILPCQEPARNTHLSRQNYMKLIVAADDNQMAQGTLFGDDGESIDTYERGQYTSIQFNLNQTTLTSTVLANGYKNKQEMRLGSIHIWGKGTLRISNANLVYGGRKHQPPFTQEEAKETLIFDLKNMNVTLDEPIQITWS
Test [14] concerns Aspergillus niger. Description: Inhibition of Aspergillus niger amyloglucosidase at 230 uM by competitive inhibition-based kinetic assay.
A further test relates to Canavalia ensiformis. Description: Inhibition of jack bean alpha-mannosidase up to 1 mM.
The species named for test [15] is Bos taurus. Description: Inhibition of bovine liver beta-galactosidase at 1 mM.
For test [16], the target named is Sucrase-isomaltase, intestinal (Rattus norvegicus) (UniProt P23739). Description: Inhibition of Sprague-Dawley rat small intestine sucrase at 1 mM.
The test system of test [17] is Saccharomyces cerevisiae. Description: Inhibition of yeast alpha-glucosidase.
The test system of test [18] is Vigna radiata var. radiata. Description: Inhibition of mung bean seedlings glucosidase 1 at 1 mM.
Test [19] has as its system Aspergillus niger. Description: Inhibition of Aspergillus niger amyloglucosidase at 7 uM by competitive inhibition-based kinetic assay.

Activity calls are given as the source filed them. The calls are words filed in the database; no cut-off is given here.

A word on the inhibition: it is the relative decrease from the control value, in per cent. Turning to `O[C@H]1[C@H](O)[C@H](O)CN2CC[C@H](O)[C@H]12`, the outcome in the test on Aspergillus niger [1] was Active. For the same compound, the inhibition with Aspergillus niger [2] is 50%.
Regarding `O[C@H]1C[C@H](O)[C@H]2[C@@H](O)CCN2C1`, the result (in the test listed under Bos taurus [3]; with Prunus dulcis; in the test on Aspergillus niger [4]; in the test filed under Bos taurus [5]; in [6]; with Aspergillus niger [8]) was inactive. Also, the result (with Aspergillus niger [9]; in test [12]; with Canavalia ensiformis) was inactive. Besides, the outcome (in the test with Aspergillus niger [1]; in test [10]; in the test filed under Bos taurus [11]; in test [13]; in the test with Saccharomyces cerevisiae [17]) was Active. The inhibition was found to be 50% in the test on Saccharomyces cerevisiae [7]; 50% in the test on Aspergillus niger [14]; 20% in the test listed under Bos taurus [15]; 30% in test [16]; 35% in [18].
For the compound `O[C@H]1[C@H](O)[C@@H](O)CN2CC[C@H](O)[C@H]12`, the outcome in the test with Aspergillus niger [1] was Active. The compound further had an inhibition in the test on Aspergillus niger [19] of 50%.
